The source of these data is patent US20030095937A1, “Method for stimulating hair growth by administering vitamin D analogs” (priority 2001, published 2003).

Molecules are shown by their SMILES.

Data set [1] is described as follows: Calcemic properties: highest dose that would not cause hypercalcemia. Format: in vivo, mouse. As to conditions: identified in previous experiments. On the procedure: (§1) Vitamin D3 analogs were dissolved in absolute ethanol prior to determining the molar concentration as measured by UV absorbance using their molar extinction coefficient at […]. All the analogs were stored at −20° C. in absolute ethanol as stock solutions of 10^−3 mol/liter. The last dilution was made in phosphate buffered saline, prior to administration into mice. Vitamin D3 compounds were always protected from light. The inventors chose the highest dose that would not cause hypercalcemia. These doses, identified in previous experiments, are summarized below in Table 1.

Data set [2] concerns BNX nu/nu mice. Briefly: Hair growth scoring in nude mice. The arrangement: key: 1: Skin pink, no hair; 2: Skin thick, pigmented, no hair; 3: Skin thick, highly pigmented, no hair; 4: Skin thick, pigmented, scattered hair; 5: Hair 1-10% of area; 6: Hair 10-25% of area; 7: Hair 25-50% of area; 8: Hair 50-75% of area; 9: Hair >75% of area; Hair 100% covered. As to conditions: male nude mice, i.p. 3 times a week, at least 35 days, hair score scale 1-10. Type of data set: in vivo.

Data set [3] concerns MCF-7 breast cancer cells. Briefly: Inhibition of clonal growth of MCF-7 cells. Format: cell-based, human. Particulars: effective dose that inhibited 50% clonal growth of MCF-7 breast cancer cells.
Data set [4] has as its system human HL60 myeloid leukemia cells. Description: Inhibition of clonal growth of HL60 cells. Type of data set: cell-based. Particulars: effective dose that inhibited 50% clonal growth of human HL60 myeloid leukemia cells.
The subject of data set [5] is BNX nu/nu mice. Description: Hair growth scoring in nude mice. Format: in vivo. The arrangement: key to Peak Score, Mouse 2: 1: Skin pink, no hair; 2: Skin thick, pigmented, no hair; 3: Skin thick, highly pigmented, no hair; 4: Skin thick, pigmented, scattered hair; 5: Hair 1-10% of area; 6: Hair 10-25% of area; 7: Hair 25-50% of area; 8: Hair 50-75% of area; 9: Hair >75% of area; Hair 100% covered. The procedure:
In the experiments described herein, BNX nu/nu male and female mice at 8 weeks of age were used. In one series of experiments, a total of 3 males were allotted equally within each of the groups consisting of 6 different vitamin D3 compounds, and a control untreated group. In an addition, three male and 3 female mice received EB1089. All of the analogs were injected intraperitoneally (i.p.), three times a week in a volume of 200 μl phosphate buffered saline.
as §1
The inventors developed the following scale for measuring hair growth in BNX mice:
The inventors examined hair growth of nude mice as the mice received diluant (control mice), 1.25(OH)2D3 or one of 6 vitamin D3 analogs. Each group contained three mice. The effect of Vitamin D3 analogs on hair growth of nude mice was systematically assessed on each mouse by giving them scores from a scale of 1-10 (Table1), 3 times a week. The score for hair growth takes in to account the thickness and pigmentation, as both of these characteristics correlate indirectly with induction of anagen, the growth phase of the hair cycle. For example, a score of […] represents skin thickening with heavy pigmentation; this reflects the formation of the hair shaft prior to the protrusion of hair above the skin surface.

Data set [6] deals with CYP19 gene that encodes the P450 aromatase. Briefly: RT-PCR RNA analysis of skin samples for CYP19 expression. Type of data set: in vivo, mice. As to conditions: skin samples at the highest score of 7, RT-PCR, data not shown. On the procedure: Skin samples from mice were processed as is routinely done in the art. RT-PCR was performed to make cDNA which was examined for expression of CYP19 gene that encodes the P450 aromatase (9).
Skin samples at the highest score of 7 from Ro-25-9022 and control skin sample were processed to extract RNA, cDNA was made and amplified for the expression of CYP19 gene that encodes P450 aromatase.

Setting [7] is: male nude mice, i.p. 3 times a week, at least 35 days, hair score scale 1-10.
[8] abbreviates: male nude mice, three mice per group, i.p. 3 times a week, hair score scale 1-10.
Where [9] appears, read: female nude mice, i.p. 3 times a week, hair score scale 1-10.

`C=C1/C(=C\C=C2/CCC[C@]3(C)[C@@H]([C@H](C)CCCC(C)(C)O)CC[C@@H]23)C[C@@H](O)C[C@@H]1O` [1,25(OH)2D3, reference compound]: the “NON-HYPERCALCEMIC DOSE” value in data set [1] was 0.0626 μg/mouse. Further, in data set [2], the “Peak Score, Mouse 3” value is given as 4. Besides, the “ED50 MCF-7” value in data set [3] is given as 1 × 10^−7 MOLAR UNITS. In addition, the “ED50 HL60” value in data set [4] is 1 × 10^−8 MOLAR UNITS. Besides, in data set [5] (setting [7]), the “Peak Score, Mouse 1” value is on record as 5 (Hair 1-10% of area) and the “Peak Score, Mouse 2” value is reported as 5 (Hair 1-10% of area). In data set [5] (setting [8]), the “Mean Peak Score” value is listed as 4.67. Besides, the “hair growth score reached, not exceeded” value in data set [5] (nude mice, scored 3 times a week, scale 1-10) is 5 (Hair 1-10% of area).

In the case of `C=C1/C(=C\C=C2/CCC[C@]3(C)[C@@H]([C@H](C)/C=C/C=C/C(O)(CC)CC)CC[C@@H]23)C[C@@H](O)C[C@@H]1O` [EB1089], the “NON-HYPERCALCEMIC DOSE” value in data set [1] was 0.5 µg/kg. The “Peak Score, Mouse 3” value is on record as 4 in data set [2] and 7 (Hair 25-50% of area) in data set [5] (setting [9]). In addition, in data set [4], the “ED50 HL60” value is 5 × 10^−11 MOLAR UNITS. Besides, the “timing of first peak of hair growth, females vs males” value in data set [5] (FIG. 3F) is on record as “first peak of hair growth in females slightly preceded the peak in the males”. For the same molecule, the “ability to stimulate hair growth in male and female mice” value in data set [5] (both males and females) is “Both males and females had hair stimulation”. Besides, the “latency period to achieve maximal hair growth” value (shortened to “latency period”) is listed as “about 9 days” in data set [5] (female nude mice) and “about 18 days” in data set [5] (male nude mice). The “Peak Score, Mouse 1” value in data set [5] (setting [9]) and in data set [5] (setting [7]) was 7 (Hair 25-50% of area) each time. Moreover, the “Peak Score, Mouse 2” value is 7 (Hair 25-50% of area) in data set [5] (setting [9]) and 8 (Hair 50-75% of area) in data set [5] (setting [7]). Also, the “Mean Peak Score” value in data set [5] (female nude mice, three mice, i.p. 3 times a week, hair score scale 1-10) is listed as 7.00; in data set [5] (setting [8]), 6.33. Moreover, the “time of second cycle of hair growth from the first cycle” value (from here on “time of second cycle of hair growth”) in data set [5] (nude mice) was “about 16 days”.

`C=C1/C(=C\C=C2/CCC[C@]3(C)[C@@H]([C@@H](C)OCCCC(O)(CC)CC)CC[C@@H]23)C[C@@H](O)C[C@@H]1O` [KH1060, 1α, 25—(OH)2-20-epi-22-oxa-24,26,27-trishomo-vitamin D3]: the “NON-HYPERCALCEMIC DOSE” value in data set [1] is recorded as 0.0125 μg/mouse. The “Peak Score, Mouse 3” value in data set [2] is reported as 6 (Hair 10-25% of area). In addition, the “ED50 MCF-7” value in data set [3] is 1 × 10^−10 MOLAR UNITS. In addition, the “ED50 HL60” value in data set [4] is listed as 1 × 10^−12 MOLAR UNITS. Besides, the “latency period” value in data set [5] (male nude mice) is given as about 21 days. Also, in data set [5] (setting [7]), the “Peak Score, Mouse 1” value is reported as 8 (Hair 50-75% of area) and the “Peak Score, Mouse 2” value is 6 (Hair 10-25% of area). Moreover, in data set [5] (setting [8]), the “Mean Peak Score” value turned out to be 6.67.

In the case of `C[C@H](C/C=C/C(O)(C(F)(F)F)C(F)(F)F)C1=CCC2/C(=C/C=C3C[C@@H](O)C[C@H](O)C3)CCC[C@]12C` (stereo partly shown) [Ro25-9022, 1,25-(OH)2-16-ene-23-yne-26,27-F6-19-nor-D3], the “NON-HYPERCALCEMIC DOSE” value in data set [1] is listed as 0.00125 μg/mouse. In addition, the “Peak Score, Mouse 3” value in data set [2] came out at 4. Besides, in data set [3], the “ED50 MCF-7” value is recorded as 6 × 10^−10 MOLAR UNITS. Also, the “expression of CYP19 gene (P450 aromatase) vs control skin sample” value in data set [6] was “equivalent expression”. Besides, the “ED50 HL60” value in data set [4] is given as 2 × 10^−10 MOLAR UNITS. In addition, in data set [5] (setting [7]), the “Peak Score, Mouse 1” value is reported as 8 (Hair 50-75% of area) and the “Peak Score, Mouse 2” value is 4. Also, the “Mean Peak Score” value in data set [5] (setting [8]) is given as 6.33.

Regarding `C[C@H](CCC(=O)C(C)(C)O)C1=CCC2/C(=C/C=C3C[C@@H](O)C[C@H](O)C3)CCC[C@]12C` (stereo partly shown) [Ro26-9114], the “NON-HYPERCALCEMIC DOSE” value in data set [1] was 6 μg/mouse. In data set [2], the “Peak Score, Mouse 3” value is 4. Further, the “ED50 HL60” value in data set [4] is recorded as 1 × 10^−10 MOLAR UNITS. Also, in data set [5] (male nude mice), the “latency period” value is “about 9 days”. Moreover, in data set [5] (setting [7]), the “Peak Score, Mouse 1” value was 8 (Hair 50-75% of area) and the “Peak Score, Mouse 2” value is 8 (Hair 50-75% of area). The “Mean Peak Score” value in data set [5] (setting [8]) is recorded as 5.33. In data set [5] (nude mice), the “time of second cycle of hair growth” value is “about 16 days”.

As for `C[C@]12CCC/C(=C\C=C3C[C@@H](O)C[C@H](O)C3)C1CC[C@@H]2C1(C/C=C/C(O)(C(F)(F)F)C(F)(F)F)CC1` (stereo partly shown) [Ro27-0574], the “Peak Score, Mouse 3” value in data set [2] is 4. In addition, the “ED50 MCF-7” value in data set [3] is reported as 2 × 10^−9 MOLAR UNITS. Moreover, the “ED50 HL60” value in data set [4] is given as 2 × 10^−10 MOLAR UNITS. In addition, in data set [5] (setting [7]), the “Peak Score, Mouse 1” value was 8 (Hair 50-75% of area) and the “Peak Score, Mouse 2” value is listed as 8 (Hair 50-75% of area). Besides, in data set [5] (setting [8]), the “Mean Peak Score” value is given as 6.67. For the same molecule, in data set [5] (nude mice), the “time of second cycle of hair growth” value was “about 16 days”.

As to `CC(C)(O)CCCC(CCCC(C)(C)O)[C@H]1CCC2/C(=C/C=C3C[C@@H](O)C[C@H](O)C3)CCC[C@@]21C` (stereo partly shown) [Ro27-5646], the “NON-HYPERCALCEMIC DOSE” value in data set [1] is 0.01 μg/mouse. For the same molecule, in data set [2], the “Peak Score, Mouse 3” value was 6 (Hair 10-25% of area). For the same molecule, in data set [3], the “ED50 MCF-7” value is given as 4 × 10^−10 MOLAR UNITS. Moreover, the “ED50 HL60” value in data set [4] was 2 × 10^−10 MOLAR UNITS. Besides, in data set [5] (setting [7]), the “Peak Score, Mouse 1” value is listed as 8 (Hair 50-75% of area) and the “Peak Score, Mouse 2” value was 8 (Hair 50-75% of area). In addition, in data set [5] (setting [8]), the “Mean Peak Score” value is 7.33.
